In patent US20040241653A1, “Methods for identifying marker genes for cancer” (priority 2001, published 2004):

Experiments:
[1] = system: p21 promoter; assay: p21/Waf1 p53-responsive promoter CAT reporter assay in transfected LNCaP cells; assay type: cell-based, human; conditions: LNCaP cells co-transfected with p21-CAT reporter and wild type p53 plasmid; TSA 100 nM
Protocol: (§1) FIG. 2: Opposite regulatory effect of p53 on PSA and p21 promoters. Chloramphenicol acetyltransferase (CAT)-reporter constructs were used to estimate p53 influence on PSA and p21 promoter elements. […]
(§2) FIG. 3: Trichostatin A (TSA) treatment eliminates the effect p53 has on PSA promoter activity. […] TSA (100 nM) was added 5 h and CAT activity was measured 40 h post-transfection. […]
(§3) Since it has previously been shown that negative regulation of transcription by p53 may involve p53-mediated recruitment of histone deacetylases (HDAC) (Murphy et al., Genes Dev., i3:2490-2501 1999), the inventors set out to determine whether this would be also true for the PSA promoter. […] At the same time, TSA had no effect on p53-mediated transactivation as determined in a similar experiment employing the p21 promoter-driven CAT reporter construct (FIG. 3). […]

[2] = system: PSA promoter; assay: PSA promoter/enhancer CAT reporter assay in transfected LNCaP cells; assay type: cell-based, human; conditions: LNCaP cells co-transfected with PSA-CAT reporter and wild type p53 plasmid; TSA 100 nM
Protocol: as §1, §2, §3

## CC(/C=C/C(=O)NO)=C\[C@@H](C)C(=O)c1ccc(N(C)C)cc1 [TSA, Trichostatin A]
[1]
  p53-mediated transactivation of p21 promoter-driven CAT reporter: no effect
[2]
  p53-mediated repression of PSA promoter driven transcriptional activity (CAT activity): completely abrogated
